Results reported in publication PMC11876601 (Molecular Systems Biology, 2025).
Like-named read-outs stand apart in the source and are kept apart here.

Assays:
Experiment in all cases: cells
PSN-1 [1] = system: PSN-1; parameters: ATPlite luminescence viability of PDAC cell lines, 11-dose single-agent curves, 4-parameter fit; settings: Homo sapiens, PSN1, 72 h, read-out: EC50 [nM]
Outline: (§1)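 cells (1000 to 5000 per well) seeded 24 h before drug addition in a combination screen at 0.2% final DMSO. Controls were drug-free wells (negative) and 5 µM staurosporine (positive).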

Suit2-07 [2] = system: Suit2-07; parameters: ATPlite luminescence viability of PDAC cell lines, 11-dose single-agent curves, 4-parameter fit; settings: 72 h, read-out: EC50 [nM]
Outline: as §1

AsPC-1 [3] = system: AsPC-1; parameters: ATPlite luminescence viability of PDAC cell lines, 11-dose single-agent curves, 4-parameter fit; settings: Homo sapiens, ASPC1, 72 h, read-out: EC50 [nM]
Outline: as §1

BxPC-3 [4] = system: BxPC-3; parameters: ATPlite luminescence viability of PDAC cell lines, 11-dose single-agent curves, 4-parameter fit; settings: Homo sapiens, BXPC-3, 72 h, read-out: EC50 [nM]
Outline: as §1

MiaPaCa-2 [5] = system: MiaPaCa-2; parameters: ATPlite luminescence viability of PDAC cell lines, 11-dose single-agent curves, 4-parameter fit; settings: Homo sapiens, MIA PaCa-2, 72 h, read-out: EC50 [nM]
Outline: as §1

HPDE [6] = system: HPDE; parameters: Viability of PDAC cell lines, ATPlite luminescence, 11-dose single-agent curve fit; settings: HPDE, 72 h, read-out: EC50 [nM]
Outline: (§2)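 cells (1000 to 5000 per well) seeded 24 h before drug addition in a screen at 0.2% final DMSO. Controls were drug-free wells (negative) and 5 µM staurosporine (positive).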

Dan-G [7] = system: Dan-G; parameters: Viability of PDAC cell lines, ATPlite luminescence, 11-dose single-agent curve fit; settings: 72 h, read-out: EC50 [nM]
Outline: as §2

HuP-T4 = system: HuP-T4; parameters: Viability of PDAC cell lines, ATPlite luminescence, 11-dose single-agent curve fit; settings: Homo sapiens, HuP-T4, 72 h, read-out: EC50 [nM]
Outline: as §2

Colo-357 [8] = system: Colo-357; parameters: Viability of PDAC cell lines, ATPlite luminescence, 11-dose single-agent curve fit; settings: Homo sapiens, COLO357, 72 h, read-out: EC50 [nM]
Outline: as §2

FAMPAC [9] = system: FAMPAC; parameters: Viability of PDAC cell lines, ATPlite luminescence, 11-dose single-agent curve fit; settings: 72 h, read-out: EC50 [nM]
Outline: as §2

PaTu-8988-T [10] = system: PaTu-8988-T; parameters: Viability of PDAC cell lines, ATPlite luminescence, 11-dose single-agent curve fit; settings: Homo sapiens, PaTu 8988t, 72 h, read-out: EC50 [nM]
Outline: as §2

PANC-1 = system: PANC-1; parameters: Viability of PDAC cell lines, ATPlite luminescence, 11-dose single-agent curve fit; settings: Homo sapiens, PANC-1, 72 h, read-out: EC50 [nM]
Outline: as §2

Capan-1 = system: Capan-1; parameters: Viability of PDAC cell lines, ATPlite luminescence, 11-dose single-agent curve fit; settings: Homo sapiens, CAPAN-1, 72 h, read-out: EC50 [nM]
Outline: as §2

Dan-G [11] = system: Dan-G; parameters: ATPlite luminescence viability of PDAC cell lines, 11-dose single-agent curves, 4-parameter fit; settings: 72 h, read-out: EC50 [nM]
Outline: as §1

Colo-357 [12] = system: Colo-357; parameters: ATPlite luminescence viability of PDAC cell lines, 11-dose single-agent curves, 4-parameter fit; settings: Homo sapiens, COLO357, 72 h, read-out: EC50 [nM]
Outline: as §1

PaTu-8988-T [13] = system: PaTu-8988-T; parameters: ATPlite luminescence viability of PDAC cell lines, 11-dose single-agent curves, 4-parameter fit; settings: Homo sapiens, PaTu 8988t, 72 h, read-out: EC50 [nM]
Outline: as §1

PSN-1 [14] = system: PSN-1; parameters: Viability of PDAC cell lines, ATPlite luminescence, 11-dose single-agent curve fit; settings: Homo sapiens, PSN1, 72 h, read-out: EC50 [nM]
Outline: as §2

Suit2-07 [15] = system: Suit2-07; parameters: Viability of PDAC cell lines, ATPlite luminescence, 11-dose single-agent curve fit; settings: 72 h, read-out: EC50 [nM]
Outline: as §2

FAMPAC [16] = system: FAMPAC; parameters: ATPlite luminescence viability of PDAC cell lines, 11-dose single-agent curves, 4-parameter fit; settings: 72 h, read-out: EC50 [nM]
Outline: as §1

AsPC-1 [17] = system: AsPC-1; parameters: Viability of PDAC cell lines, ATPlite luminescence, 11-dose single-agent curve fit; settings: Homo sapiens, ASPC1, 72 h, read-out: EC50 [nM]
Outline: as §2

BxPC-3 [18] = system: BxPC-3; parameters: Viability of PDAC cell lines, ATPlite luminescence, 11-dose single-agent curve fit; settings: Homo sapiens, BXPC-3, 72 h, read-out: EC50 [nM]
Outline: as §2

MiaPaCa-2 [19] = system: MiaPaCa-2; parameters: Viability of PDAC cell lines, ATPlite luminescence, 11-dose single-agent curve fit; settings: Homo sapiens, MIA PaCa-2, 72 h, read-out: EC50 [nM]
Outline: as §2

HPDE [20] = system: HPDE; parameters: ATPlite luminescence viability of PDAC cell lines, 11-dose single-agent curves, 4-parameter fit; settings: HPDE, 72 h, read-out: EC50 [nM]
Outline: as §1

| Compound | EC50 (AsPC-1 [3]) [nM] | EC50 (BxPC-3 [4]) [nM] | EC50 (MiaPaCa-2 [5]) [nM] | EC50 (Colo-357 [8]) [nM] | EC50 (PANC-1) [nM] | EC50 (Colo-357 [12]) [nM] | EC50 (AsPC-1 [17]) [nM] | EC50 (BxPC-3 [18]) [nM] | EC50 (MiaPaCa-2 [19]) [nM] | EC50 (PSN-1 [1]) [nM] | EC50 (Suit2-07 [2]) [nM] | EC50 (HPDE [6]) [nM] | EC50 (Dan-G [7]) [nM] | EC50 (HuP-T4) [nM] | EC50 (FAMPAC [9]) [nM] | EC50 (PaTu-8988-T [10]) [nM] | EC50 (Capan-1) [nM] | EC50 (Dan-G [11]) [nM] | EC50 (PSN-1 [14]) [nM] | EC50 (Suit2-07 [15]) [nM] | other results |
| --- | --- | --- | --- | --- | --- | --- | --- | --- | --- | --- | --- | --- | --- | --- | --- | --- | --- | --- | --- | --- | --- |
| COc1cc(CCc2cc(NC(=O)c3ccc(N4C[C@@H](C)N[C@@H](C)C4)cc3)n[nH]2)cc(OC)c1 [AZD4547] | > 10000 | 6320 | > 10000 | 1080 | 5350 | – | – | – | – | 8650 | 9040 | 5300 | 0.1 | 9460 | > 10000 | 7380 | 0.79 | – | – | – | – |
| Cc1nc(NC(=O)N2CCC[C@H]2C(N)=O)sc1-c1ccnc(C(C)(C)C(F)(F)F)c1 [Alpelisib] | 3740 | 1640 | 1400 | – | > 10000 | 355 | – | – | – | – | – | 7680 | – | 21.8 | 3750 | – | 5110 | 661 | 269 | 2060 | EC50 (PaTu-8988-T [13]): 3930 nM |
| COC(=O)N[C@@H](C)CNc1nccc(-c2cn(C(C)C)nc2-c2cc(Cl)cc(NS(C)(=O)=O)c2F)n1 [Encorafenib] | 3210 | 296 | 1290 | – | 6620 | 1020 | – | – | – | 800 | 1790 | 1140 | – | – | – | 1220 | 453 | 620 | – | – | EC50 (FAMPAC [16]): 943 nM |
| CC(C)NC[C@@H](C(=O)N1CCN(c2ncnc3c2[C@H](C)C[C@H]3O)CC1)c1ccc(Cl)cc1 [Ipatasertib] | – | – | – | – | > 10000 | 151 | 154 | 246 | 3940 | – | 3240 | 5290 | – | 310 | 642 | 543 | 4690 | 1150 | 7080 | – | – |

These reach a lower EC50 (PANC-1). Values come first.

| EC50 (AsPC-1 [3]) [nM] | EC50 (BxPC-3 [4]) [nM] | EC50 (MiaPaCa-2 [5]) [nM] | EC50 (Colo-357 [8]) [nM] | EC50 (PANC-1) [nM] | EC50 (Colo-357 [12]) [nM] | EC50 (AsPC-1 [17]) [nM] | EC50 (BxPC-3 [18]) [nM] | EC50 (MiaPaCa-2 [19]) [nM] | Compound | EC50 (PSN-1 [1]) [nM] | EC50 (Suit2-07 [2]) [nM] | EC50 (HPDE [6]) [nM] | EC50 (Dan-G [7]) [nM] | EC50 (HuP-T4) [nM] | EC50 (FAMPAC [9]) [nM] | EC50 (PaTu-8988-T [10]) [nM] | EC50 (Capan-1) [nM] | EC50 (Dan-G [11]) [nM] | EC50 (PSN-1 [14]) [nM] | EC50 (Suit2-07 [15]) [nM] | other results |
| --- | --- | --- | --- | --- | --- | --- | --- | --- | --- | --- | --- | --- | --- | --- | --- | --- | --- | --- | --- | --- | --- |
| 83.9 | 381 | 10.7 | 58.4 | 350 | – | – | – | – | Cn1cnc2c(F)c(Nc3ccc(Br)cc3F)c(C(=O)NOCCO)cc21 [Binimetinib] | 71.8 | – | 222 | 504 | 176 | – | 155 | 401 | – | – | 112 | EC50 (FAMPAC [16]): 2430 nM |
| – | – | – | – | 3760 | 3560 | 3000 | > 10000 | 3140 | Cc1cc2c(F)c(Oc3ncnn4cc(OC[C@@H](C)OC(=O)[C@H](C)N)c(C)c34)ccc2[nH]1 [Brivanib alaninate] | – | – | 3160 | 3820 | 2460 | > 10000 | > 10000 | > 10000 | – | 3990 | > 10000 | – |
| – | – | – | 373 | 1170 | – | 46.1 | 128 | 1840 | C=CC(=O)N1CCC[C@@H](n2nc(-c3ccc(Oc4ccccc4)cc3)c3c(N)ncnc32)C1 [Ibrutinib] | – | – | – | – | 54.2 | 28.3 | 166 | 317 | 56.6 | 1100 | 396 | EC50 (HPDE [20]): 521 nM |
